We go through 29 compounds from ChEMBL document CHEMBL1614632, “Trend analysis of a database of intravenous pharmacokinetic parameters in humans for 670 drug compounds” (Drug Metab Dispos, 2008).

As a reminder, the Vd is a proportionality between amount in the body and measured concentration, not a real space. Lower therefore signals confinement near the circulation. Broadly, the half-life is the time needed for the level to fall by half in the phase considered. Read a low half-life as rapid decline. What is called clearance is the rate of elimination divided by the concentration. The term MRT denotes the average time that molecules of a dose stay in the body.

The nature of series [1]: clinical. Conditions: human, in vivo, iv, Vdss.
A short description of series [2]: clinical. Particulars: human, in vivo, iv, t1/2.
A short description of series [3]: clinical. Particulars: human, in vivo, iv, CL.
Series [4] is described as follows: clinical. Conditions: human, in vivo, iv.

Compound `COc1ccc([C@]2(C#N)CC[C@@H](C(=O)O)CC2)cc1OC1CCCC1` [CILOMILAST] came in with a Vd in series [1] of 0.23 L/kg. In addition, the half-life in series [2] was 7.9 h. In series [3], this compound came in with a clearance of 0.5 mL/min/kg. The mean residence time (MRT) in series [4] amounted to 8.5 h.

As to `N/N=c1/cc2c(n[nH]1)CCN(C(=O)c1ccccc1)C2` [ENDRALAZINE], the Vd in series [1] came out at 2.2 L/kg. In series [2], this compound gave a half-life of 5.6 h. The compound further returned a clearance in series [3] of 13 mL/min/kg. In addition, the mean residence time (MRT) in series [4] came out at 2.7 h.

In turn, `CCN1CC(CCN2CCOCC2)C(c2ccccc2)(c2ccccc2)C1=O` (stereo unspecified) [DOXAPRAM] registered a Vd in series [1] of 1.2 L/kg. The compound further gave a half-life in series [2] of 4.1 h. In series [3], this compound showed a clearance of 5.3 mL/min/kg. The mean residence time (MRT) in series [4] is 3.7 h.

For the compound `C[C@H](N[C@@H](CCc1ccccc1)C(=O)O)C(=O)N1CCC[C@H]1C(=O)O` [ENALAPRILAT ANHYDROUS], the Vd in series [1] is 0.38 L/kg. This compound showed a half-life in series [2] of 39 h. Further, the clearance in series [3] is 1.6 mL/min/kg. The same compound displayed an MRT in series [4] of 4 h.

In turn, `CC(C)(C)[C@]1(O)CC2OC(=O)CC23C(=O)OC2OC(=O)[C@H](O)C231` (stereo partly specified) [BILOBALIDE] showed a volume of distribution (Vd) in series [1] of 2.5 L/kg. In series [2], this compound gave a half-life of 3.2 h. The same compound registered a clearance in series [3] of 10 mL/min/kg. In series [4], this compound displayed a mean residence time MRT of 4 h.

In turn, `C[C@H]1c2cccc(O)c2C(=O)C2=C(O)[C@]3(O)C(=O)C(C(N)=O)=C(O)[C@@H](N(C)C)[C@@H]3[C@@H](O)[C@@H]21.O` [DOXYCYCLINE] yielded a Vd in series [1] of 0.69 L/kg. In series [2], the half-life is 14 h. For the same compound, the clearance in series [3] is 0.46 mL/min/kg. The MRT in series [4] is 25 h.

`Cc1cnc(NCCCN(C)C)c2c1[nH]c1ccc3cc(O)ccc3c12` [INTOPLICINE] showed a volume of distribution (Vd) in series [1] of 11 L/kg. The half-life in series [2] is 19 h. Moreover, in series [3], the clearance is 18 mL/min/kg. In series [4], this compound returned an MRT of 11 h.

Compound `O=C(NCCNCC(O)COc1ccc(O)cc1)N1CCOCC1` (stereo unspecified) [XAMOTEROL] gave a Vd in series [1] of 0.64 L/kg. In addition, the half-life in series [2] was 7.7 h. The same compound displayed a clearance in series [3] of 3 mL/min/kg. In series [4], this compound had an MRT of 3.6 h.

In series [1], `O=C(O)[C@H]1/C(=C/CO)O[C@@H]2CC(=O)N21` [CLAVULANIC ACID] displayed a volume of distribution (Vd) of 0.22 L/kg. In series [2], this compound showed a half-life of 0.9 h. This compound registered a clearance in series [3] of 3.1 mL/min/kg. In addition, in series [4], the mean residence time MRT stood at 1 h.

`Cc1cccc(Nc2ccncc2S(=O)(=O)NC(=O)NC(C)C)c1` [TORSEMIDE]: the Vd in series [1] was found to be 0.21 L/kg. In series [2], the half-life was 5.1 h. In series [3], this compound gave a clearance of 0.53 mL/min/kg. In series [4], this compound yielded an MRT of 6.6 h.

`CC1COc2c(N3CCN(C)CC3)c(F)cc3c(=O)c(C(=O)O)cn1c23` (stereo unspecified) [OFLOXACIN] displayed a Vd in series [1] of 1.6 L/kg. The compound further had a half-life in series [2] of 8.9 h. Moreover, the clearance in series [3] came to 2.5 mL/min/kg. The MRT in series [4] is 11 h.

`CCCC[C@@H]1CC(=O)[C@]2(O)O[C@@H]3[C@@H](NC)[C@@H](O)[C@@H](NC)[C@H](O)[C@H]3O[C@@H]2O1` [TROSPECTOMYCIN]: the Vd in series [1] worked out at 0.7 L/kg. For the same compound, the half-life in series [2] is 11 h. The compound further had a clearance in series [3] of 1.7 mL/min/kg. The compound further showed a mean residence time (MRT) in series [4] of 6.9 h.

Turning to `Cc1ccc(-c2nc3ccc(C)cn3c2CC(=O)N(C)C)cc1` [ZOLPIDEM], the Vd in series [1] worked out at 0.54 L/kg. Moreover, the half-life in series [2] was 1.7 h. Also, the clearance in series [3] is 4.3 mL/min/kg. The MRT in series [4] is 2.1 h.

`CC1=C(C(=O)O)N2C(=O)[C@@H](NC(=O)[C@H](N)C3=CCC=CC3)[C@H]2SC1` [CEPHRADINE] came in with a Vd in series [1] of 0.21 L/kg. Also, the half-life in series [2] is 0.85 h. This compound registered a clearance in series [3] of 3.3 mL/min/kg. The same compound showed an MRT in series [4] of 1.1 h.

Regarding `NC(=O)CC[C@@H]1NC(=O)[C@H](Cc2ccccc2)NC(=O)[C@H](Cc2ccc(O)cc2)NC(=O)CCSSC[C@@H](C(=O)N2CCC[C@H]2C(=O)N[C@H](CCCN=C(N)N)C(=O)NCC(N)=O)NC(=O)[C@H](CC(N)=O)NC1=O` [DESMOPRESSIN], the Vd in series [1] was determined as 0.3 L/kg. This compound also showed a half-life in series [2] of 3 h. This compound also returned a clearance in series [3] of 1.4 mL/min/kg. This compound also registered a mean residence time MRT in series [4] of 3.6 h.

`CCCCc1ncc(/C=C(\Cc2cccs2)C(=O)O)n1Cc1ccc(C(=O)O)cc1` [EPROSARTAN]: in series [1], the distribution volume (Vd) amounted to 0.17 L/kg. In series [2], this compound had a half-life of 2.1 h. For the same compound, the clearance in series [3] was determined as 1.9 mL/min/kg. Also, in series [4], the mean residence time (MRT) amounted to 1.5 h.

`OC(CNCC(O)C1CCc2cc(F)ccc2O1)C1CCc2cc(F)ccc2O1` (stereo unspecified) [NEBIVOLOL] gave a Vd in series [1] of 11 L/kg. In series [2], this compound gave a half-life of 10 h. This compound also gave a clearance in series [3] of 14 mL/min/kg. In addition, the mean residence time MRT in series [4] is 13 h.

Turning to `C[C@@H]1CN(c2c(F)c(N)c3c(=O)c(C(=O)O)cn(C4CC4)c3c2F)C[C@H](C)N1` [SPARFLOXACIN], the volume of distribution (Vd) in series [1] is 3.9 L/kg. The same compound gave a half-life in series [2] of 20 h. This compound returned a clearance in series [3] of 2.7 mL/min/kg. For the same compound, the MRT in series [4] came to 24 h.

The compound `CNC(=O)c1c(I)c(NC(C)=O)c(I)c(C(=O)O)c1I` [IOTHALAMIC ACID] yielded a distribution volume (Vd) in series [1] of 0.17 L/kg. Besides, the half-life in series [2] is 1.3 h. In series [3], this compound showed a clearance of 2.4 mL/min/kg. The mean residence time (MRT) in series [4] is 1.2 h.

In turn, `O=C(O)C1N=C(c2ccccc2)c2cc(Cl)ccc2NC1=O` (stereo unspecified) [CLORAZEPIC ACID] displayed a Vd in series [1] of 0.2 L/kg. Further, the half-life in series [2] is 2.4 h. This compound also registered a clearance in series [3] of 1.1 mL/min/kg. This compound displayed an MRT in series [4] of 3 h.

In turn, `CCOc1ccccc1OCC1CNCCO1` (stereo unspecified) [VILOXAZINE] registered a distribution volume (Vd) in series [1] of 0.73 L/kg. In series [2], this compound showed a half-life of 4.1 h. Moreover, the clearance in series [3] is 2.1 mL/min/kg. This compound also displayed an MRT in series [4] of 5.8 h.

In series [1], `NCCCNc1ccc2c(CNCCO)nn3c4c(O)ccc(O)c4c(=O)c1c23` registered a Vd of 12 L/kg. In series [2], this compound gave a half-life of 32 h. Also, in series [3], the clearance amounted to 18 mL/min/kg. For the same compound, the mean residence time (MRT) in series [4] worked out at 11 h.

On to `CNCCC=C1c2ccccc2CCc2ccccc21` [NORTRIPTYLINE], for which, in series [1], the volume of distribution (Vd) was 22 L/kg. The half-life in series [2] was 30 h. In addition, the clearance in series [3] was 10 mL/min/kg. This compound also yielded a mean residence time (MRT) in series [4] of 37 h.

In series [1], `N=C(N)NC(=O)Cc1c(Cl)cccc1Cl` [GUANFACINE] registered a Vd of 5.6 L/kg. Moreover, the half-life in series [2] is 15 h. Besides, the clearance in series [3] was 4.5 mL/min/kg. This compound also came in with an MRT in series [4] of 22 h.

Consider `NC(=O)CN1CC(O)CC1=O` (stereo unspecified) [OXIRACETAM], for which the distribution volume (Vd) in series [1] was determined as 0.55 L/kg. The compound also gave a half-life in series [2] of 7.5 h. The clearance in series [3] was found to be 1.8 mL/min/kg. Besides, the mean residence time MRT in series [4] is 4.9 h.

For `Nc1nc2c(ncn2CCC(CO)CO)c(=O)[nH]1` [PENCICLOVIR], the Vd in series [1] was found to be 1.1 L/kg. The same compound gave a half-life in series [2] of 2.1 h. Moreover, in series [3], the clearance worked out at 8.4 mL/min/kg. The mean residence time (MRT) in series [4] was 2.4 h.

In turn, `CCCCCCCN(CC)CCCC(O)c1ccc(NS(C)(=O)=O)cc1` (stereo unspecified) [IBUTILIDE] yielded a distribution volume (Vd) in series [1] of 12 L/kg. The half-life in series [2] was 7 h. The clearance in series [3] amounted to 26 mL/min/kg. In series [4], the MRT worked out at 7.7 h.

As to `CC1=NS(=O)(=O)c2cc(Cl)ccc2N1` [DIAZOXIDE], the distribution volume (Vd) in series [1] was found to be 0.21 L/kg. The half-life in series [2] was 48 h. In series [3], this compound came in with a clearance of 0.06 mL/min/kg. Besides, the mean residence time MRT in series [4] is 58 h.

In turn, `C[N+](C)([O-])CCCN1c2ccccc2CCc2ccccc21` [IMIPRAMINOXIDE] had a distribution volume (Vd) in series [1] of 1.9 L/kg. Moreover, the half-life in series [2] was 1.8 h. Moreover, in series [3], the clearance is 12 mL/min/kg. Further, the mean residence time (MRT) in series [4] worked out at 2.6 h.
